What all share (assay type): in vivo
Set-up in all cases: key: 5=81-100%; 4=61-80%; 3=41-60%; 2=21-40%; 1=1-20%; 0=no damage to the plant; -=not tested

Assay [1] has as its system Amaranthus retoflexus (AMARE). Kind of assay: Pre-emergence test, herbicidal damage. As to conditions: 1000 g/ha unless otherwise stated, evaluated after 13 days, five-point scale.
Assay [2] concerns Amaranthus palmeri (AMAPA). Kind of assay: Pre-emergence test, herbicidal damage. The settings on record: 1000 g/ha unless otherwise stated, evaluated after 13 days, five-point scale.
Assay [3] relates to Ipomoea hederacea (IPOHE). Kind of assay: Pre-emergence test, herbicidal damage. As to conditions: 1000 g/ha unless otherwise stated, evaluated after 13 days, five-point scale.
In assay [4] the test system is Zea mays (ZEAMX). As to the kind of experiment: Pre-emergence test, herbicidal damage. The settings on record: 1000 g/ha unless otherwise stated, evaluated after 13 days, five-point scale.
The test system of assay [5] is Echinochloa crus-galli (ECHCG). Kind of assay: Pre-emergence test, herbicidal damage. The settings on record: 1000 g/ha unless otherwise stated, evaluated after 13 days, five-point scale.
Assay [6] relates to Ipomoea hederacea (IPOHE). As to the kind of experiment: Post-emergence test, herbicidal damage. As to conditions: sprayed after 8 days cultivation, 1000 g/ha unless otherwise stated, evaluated after 13 days, five-point scale. Summed up: (§1)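 Seeds are sown in standard soil under controlled glasshouse conditions (24 °C day, 16 °C night, 14 h light, 65% humidity) and sprayed with compound at 1000 g/ha in aqueous acetone containing 0.5% Tween 20. Thirteen days later, percentage damage is rated on a 0–5 scale.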

Assay [7] deals with Echinochloa crus-galli (ECHCG). Kind of assay: Post-emergence test, herbicidal damage. As to conditions: sprayed after 8 days cultivation, 1000 g/ha unless otherwise stated, evaluated after 13 days, five-point scale. The essentials: as §1
In assay [8] the test system is Setaria faberi (SETFA). As to the kind of experiment: Post-emergence test, herbicidal damage. The settings on record: sprayed after 8 days cultivation, 1000 g/ha unless otherwise stated, evaluated after 13 days, five-point scale. Summed up: as §1
Assay [9] deals with Amaranthus palmeri (AMAPA). As to the kind of experiment: Post-emergence test, herbicidal damage. The settings on record: sprayed after 8 days cultivation, 1000 g/ha unless otherwise stated, evaluated after 13 days, five-point scale. The essentials:
as §1

Assay [10] concerns Zea mays (ZEAMX). As to the kind of experiment: Post-emergence test, herbicidal damage. The settings on record: sprayed after 8 days cultivation, 1000 g/ha unless otherwise stated, evaluated after 13 days, five-point scale. Summed up: as §1
Assay [11] has as its system Amaranthus retoflexus (AMARE). Kind of assay: Post-emergence test, herbicidal damage. As to conditions: sprayed after 8 days cultivation, 1000 g/ha unless otherwise stated, evaluated after 13 days, five-point scale. The essentials:
as §1

Assay [12] concerns Setaria faberi (SETFA). As to the kind of experiment: Pre-emergence test, herbicidal damage. The settings on record: 1000 g/ha unless otherwise stated, evaluated after 13 days, five-point scale.

Turning to `CC#Cc1c(-c2ccc(Cl)c(Cl)c2)c(C(=O)O)c(=O)n(-c2cc(F)cc(Cl)c2)c1C` [Compound 40, 1-(3-chloro-5-fluoro-phenyl)-4-(3,4-dichlorophenyl)-6-methyl-2-oxo-5-prop-1-ynyl-pyridine-3-carboxylic acid], the “percentage damage caused to the plant, AMARE” value in assay [1] and in assay [11] was 0 throughout. For the same compound, the “percentage damage caused to the plant, AMAPA” value in assay [2] and in assay [9] was 0 each time. The “percentage damage caused to the plant, IPOHE” value in assay [3] and in assay [6] was 0 each time. Moreover, the “percentage damage caused to the plant, ZEAMX” value in assay [4] and in assay [10] was 0 in each case. The “percentage damage caused to the plant, ECHCG” value in assay [5] and in [7] was 0 in each case. Further, the “percentage damage caused to the plant, SEFTA” value in [8] and in assay [12] was 0 in each case.

`Cc1c(Cl)c(-c2ccc(Cl)c(Cl)c2)c(C(=O)O)c(=O)n1C` [Compound 4, 5-chloro-4-(3,4-dichlorophenyl)-1,6-dimethyl-2-oxo-pyridine-3-carboxylic acid]: the “percentage damage caused to the plant, AMARE” value in [1] and in assay [11] was 1 (1=1-20%) in each case. The entries for the “percentage damage caused to the plant, AMAPA” value in assay [2] and in assay [9] were 1 (1=1-20%) and 2 (2=21-40%), respectively. Further, the “percentage damage caused to the plant, IPOHE” value in assay [3] and in assay [6] was 0 each time. Moreover, the “percentage damage caused to the plant, ZEAMX” value in [4] and in assay [10] was 0 in each case. The “percentage damage caused to the plant, ECHCG” value in assay [5] and in assay [7] was 0 throughout. Also, the “percentage damage caused to the plant, SEFTA” value in [8] and in assay [12] was 0 throughout.

As for `Cc1c(-c2ccc(Cl)c(Cl)c2)c(C(=O)O)c(=O)n(C)c1C` [Compound 12, 4-(3,4-dichlorophenyl)-1,5,6-trimethyl-2-oxo-pyridine-3-carboxylic acid], the “percentage damage caused to the plant, AMARE” value is 0 in [1] and 1 (1=1-20%) in assay [11]. Besides, the “percentage damage caused to the plant, AMAPA” value in assay [2] was 1 (1=1-20%); in assay [9], 2 (2=21-40%). For the same compound, the “percentage damage caused to the plant, IPOHE” value in assay [3] is on record as 0; in assay [6], 1 (1=1-20%). For the same compound, the “percentage damage caused to the plant, ZEAMX” value in [4] and in assay [10] was 0 each time. For the same compound, the “percentage damage caused to the plant, ECHCG” value in [5] and in assay [7] was 1 (1=1-20%) in each case. Also, the entries for the “percentage damage caused to the plant, SEFTA” value in assay [8] and in assay [12] were 1 (1=1-20%) and 2 (2=21-40%), respectively.

Regarding `Cc1cc(-c2ccc(Cl)c(Cl)c2)c(C(=O)O)c(=O)n1-c1cccc(C(F)(F)F)c1` [Compound 15, 4-(3,4-dichlorophenyl)-6-methyl-2-oxo-1-[3-(trifluoromethyl)phenyl]pyridine-3-carboxylic acid], the “percentage damage caused to the plant, AMARE” value in assay [1] and in [11] was 4 (4=61-80%) in each case. Moreover, the “percentage damage caused to the plant, AMAPA” value in [2] and in assay [9] was 4 (4=61-80%) throughout. For the same compound, the “percentage damage caused to the plant, IPOHE” value in [3] is recorded as 0; in [6], 1 (1=1-20%). The “percentage damage caused to the plant, ZEAMX” value in assay [4] is listed as 0; in assay [10] it was 1 (1=1-20%). For the same compound, the entries for the “percentage damage caused to the plant, ECHCG” value in assay [5] and in assay [7] were 0 and 1 (1=1-20%), respectively. Besides, the “percentage damage caused to the plant, SEFTA” value in assay [8] and in assay [12] was 2 (2=21-40%) throughout.

For `Cc1c(Cl)c(-c2ccc(Cl)c(Cl)c2)c(C(=O)O)c(=O)n1-c1ccc(Cl)cc1F` [Compound 25, 5-chloro-1-(4-chloro-2-fluoro-phenyl)-4-(3,4-dichlorophenyl)-6-methyl-2-oxo-pyridine-3-carboxylic acid], the “percentage damage caused to the plant, AMARE” value in assay [1] was 4 (4=61-80%); in assay [11], 3 (3=41-60%). The “percentage damage caused to the plant, AMAPA” value in [2] is 4 (4=61-80%); in assay [9], 3 (3=41-60%). The “percentage damage caused to the plant, IPOHE” value in [3] and in assay [6] was 1 (1=1-20%) in each case. The “percentage damage caused to the plant, ZEAMX” value in assay [4] and in [10] was 1 (1=1-20%) in each case. The “percentage damage caused to the plant, ECHCG” value in [5] is reported as 2 (2=21-40%); in assay [7], 1 (1=1-20%). Besides, the “percentage damage caused to the plant, SEFTA” value in [8] was 1 (1=1-20%); in [12] it was 2 (2=21-40%).

For the compound `CCc1c(C)[nH]c(=O)c(C(=O)O)c1-c1ccc(Cl)c(Cl)c1` [Compound 10, 4-(3,4-dichlorophenyl)-5-ethyl-6-methyl-2-oxo-1H-pyridine-3-carboxylic acid], the “percentage damage caused to the plant, AMARE” value in assay [1] and in assay [11] was 0 throughout. Also, the “percentage damage caused to the plant, AMAPA” value in assay [2] and in assay [9] was 0 in each case. The “percentage damage caused to the plant, IPOHE” value in assay [3] and in [6] was 0 throughout. Moreover, the “percentage damage caused to the plant, ZEAMX” value in assay [4] and in [10] was 0 each time. Also, the “percentage damage caused to the plant, ECHCG” value in [5] and in assay [7] was 0 in each case. Also, the “percentage damage caused to the plant, SEFTA” value in [8] and in assay [12] was 0 in each case.

Consider `Cc1cc(-c2ccc(Cl)c(Cl)c2)c(C(=O)O)c(=O)n1Cc1ccc(Cl)cc1F` [Compound 22, 1-[(4-chloro-2-fluoro-phenyl)methyl]-4-(3,4-dichlorophenyl)-6-methyl-2-oxo-pyridine-3-carboxylic acid], for which the figures for the “percentage damage caused to the plant, AMARE” value in assay [1] and in assay [11] were 1 (1=1-20%) and 3 (3=41-60%), respectively. Further, the results for the “percentage damage caused to the plant, AMAPA” value in assay [2] and in [9] were 1 (1=1-20%) and 3 (3=41-60%), respectively. Moreover, the results for the “percentage damage caused to the plant, IPOHE” value in [3] and in [6] were 0 and 1 (1=1-20%), respectively. Besides, the “percentage damage caused to the plant, ZEAMX” value in [4] and in [10] was 1 (1=1-20%) each time. The “percentage damage caused to the plant, ECHCG” value in assay [5] was 1 (1=1-20%); in assay [7], 0. Moreover, the “percentage damage caused to the plant, SEFTA” value in assay [8] and in assay [12] was 1 (1=1-20%) throughout.

Take `Cc1c(-c2ccc(Cl)c(Cl)c2)c(C(=O)O)c(=O)n(-c2ccc(Cl)cc2F)c1C` [Compound 26, 1-(4-chloro-2-fluoro-phenyl)-4-(3,4-dichlorophenyl)-5,6-dimethyl-2-oxo-pyridine-3-carboxylic acid]: the “percentage damage caused to the plant, AMARE” value in assay [1] and in assay [11] was 3 (3=41-60%) each time. In addition, the “percentage damage caused to the plant, AMAPA” value in assay [2] and in [9] was 3 (3=41-60%) throughout. The “percentage damage caused to the plant, IPOHE” value in assay [3] is listed as 1 (1=1-20%); in assay [6], 0. Moreover, the “percentage damage caused to the plant, ZEAMX” value in [4] and in assay [10] was 1 (1=1-20%) each time. The figures for the “percentage damage caused to the plant, ECHCG” value in [5] and in assay [7] were 0 and 1 (1=1-20%), respectively. Moreover, the “percentage damage caused to the plant, SEFTA” value in assay [8] and in assay [12] was 1 (1=1-20%) each time.

These data come from US20250289787A1, “HERBICIDAL 2-OXO-NICOTINIC ACID DERIVATIVES” (SYNGENTA CROP PROTECTION AG, priority 2022, published 2025).
